# From US20120121691A1, “Method for Increasing the Production of a Specific ACYL-Chain Dihydroceramide(s) for Improving the Effectiveness of Cancer Treatments” (priority 2010, published 2012)
# Columns and labels:
# [1] = test system: intracellular sphingolipids, CCRF-CEM cells; experiment: LC/MS/MS analysis of intracellular sphingolipids, CCRF-CEM; assay type: cell-based, human; settings: for increase in corresponding dihydroceramide over sphinganine plus GT-11 alone: fatty acid in addition to sphinganine plus GT-11, six hours, P<0.05
# Procedure: (§1) LC/MS/MS analysis of intracellular sphingolipids. Sphingolipids were separated using an Agilent 1200 HPLC (LC) and determined by ESI/MS/MS performed on a AB SCIEX 4000 QTRAP Hybrid Triple Quadrupole/Linear Ion Trap mass spectrometer (MS), operating in a multiple reaction monitoring positive ionization mode as described previously with moderate modifications (25). Briefly, 50 μL of a solution (1 μM) of internal sphingolipid standards (including -sphingosine, -sphinganine, -sphingosine-1-phosphate, and -ceramide) was added to each cell pellet sample. Lipids of each sample were extracted twice with 2 mL of the ethyl acetate/isopropyl alcohol/water (60:28:12; v:v) solvent system. Supernatants were transferred to glass tubes (Kimble Chase) and evaporated under air (10 PSI) at 40° C. After reconstitution in methanol (4 mL), 1 ml of each sample was separated for the determination of lipid phosphate. Remaining sample (3 mL) was dried and used for sphingolipid quantification. For ESI/MS/MS, the dried lipid sample was dissolved in mobile phase A. Samples were injected (10 μL) and separated on a Spectra C8SR, 150×3.0 mm, 3-μm particle size column using gradient-elution (mobile phase A/B, prepared as previously described).
# (§2) Data acquisition, peak integration and analyte quantitation were performed using ABI/SCIEX Analyst 1.4.2 Software. Sphingolipid data were normalized to lipid phosphate as previously described (26). Briefly, samples were dried under air (10 PSI) and lipids were extracted using the method of Bligh and Dyer (27). Of importance for phosphate assay, only Kimble Chase disposable borosilicate tubes were used for minimal sample contamination. Organic phase was transferred to glass tubes and a known volume was separated to a new tube and dried at 80° C. Phosphate standards and dried samples were then heated with ashing buffer (water:10 N:70% [40:9:1]) at 160° C. overnight. Samples were then incubated with ammonium molybdate and ascorbic acid as previously described, and absorbance ([…]) was read using a SpectraMax.
# CCRF-CEM cells were treated with drug/fatty acid vehicles (control), GT-11 (0.5 μM) alone, sphinganine (4 μM) alone or sphinganine (4 μM) plus GT-11 (0.5 μM) for six hours and subsequently prepared for sphingolipid analysis.
# CCRF-CEM cells were treated with GT-11 (0.5 μM) alone, sphinganine (1 μM) alone or sphinganine (1 μM) plus GT-11 (0.5 μM) for six hours and prepared for quantitative analysis. DHCers were normalized to control and plotted as fold change (bar, z-axis). * indicates significance, with P<0.05. […] CCRF-CEM cells were treated with sphinganine (1 μM) plus GT-11 (0.5 μM) with and without specific solubilized fatty acids (carbon chain length (CX) and saturation (:X), Ex: C20:1=fatty acid with 20 carbons and one desaturation) for six hours and prepared for quantitative sphingolipid analysis. Dihydroceramides were normalized to control cells that received sphinganine plus GT-11 with no fatty acid and plotted as fold change (bar, z-axis). * indicates significance, with P<0.05.
# [2] = test system: intracellular sphingolipids, COG-LL-317; experiment: LC/MS/MS analysis of intracellular sphingolipids, COG-LL-317; assay type: cell-based, human; settings: for increase in corresponding dihydroceramide over sphinganine+GT-11 alone: COG-LL-317, fatty acid with sphinganine+GT-11, six hours, P<0.05
# Procedure: as §1, §2
# Cells were treated for 48 hours with Sa (0-4 μM)+/−GT-11 (0.5 μM) with or without C18:0-, C22:0- or C22:1-fatty acids. Cytotoxicity was measured using DIMSCAN, and data was normalized to control and plotted as survival fraction (y-axis). Gray and white symbols represent long and very long chain fatty acids, respectively. Gray lines encompass data used for sphingolipid correlation analysis with cytotoxicity. Datum point, mean; error bar, SEM. […]
# Cytotoxicity was measured using DIMSCAN, and data was normalized to control and plotted as survival fraction (y-axis).
# [3] = test system: MCF-7 breast cancer cells; experiment: DIMSCAN cytotoxicity assay, MCF-7; assay type: cell-based; settings: MCF-7, fatty acid 5 micromolar
# From the text: Cell culture. The pre-T acute lymphoblastic leukemia cell lines MOLT-4 and CCRF-CEM, small cell lung cancer cell line NCI-H146, non-small cell lung cancer cell line NCI-H1792, colon cancer cell lines LoVo and HT-29, and breast cancer cell line MCF-7, were purchased from American Type Culture Collection, Manassas, Va., and grown at 20%/5% and 5%/5%, respectively. COG-LL-317 and COG-LL-332 pre-T acute lymphoblastic leukemia cell lines were obtained from the TTUHSC Cancer Center Cell Repository and grown at 5%/5%. Cell line identities were verified by short tandem repeat analysis and mycoplasma testing was performed. Cell lines were maintained in RPMI-1640 medium supplemented with 10% fetal bovine serum (FBS, Invitrogen) in humidified, 37° C. incubators. For all experiments, ALL cell lines were seeded at […] in RPMI-1640 medium supplemented with 15% fetal bovine serum. Solid tumor cell lines were plated at 5×cells/mL in RPMI-1640 medium supplemented with 10% fetal bovine serum.
# Cytotoxicity Assay. Cytoxicity is determined using the DIMSCAN assay system (R. Proffitt et al., Cytometry 24, 204-213 (1996); T. Frgala et al., Proc. AACR, 36, 303 (1995). The system employs digital imaging microscopy to quantify viable cells, which selectively accumulate fluorescein diacetate to become brightly fluorescent. The system is capable of measuring cytotoxicity over a 4-5 log dynamic range by quenching the residual fluorescence of dead and dying cells with eosin Y and quantifying the total fluorescence of viable cells using digital thresholding. Measured fluorescence is directly proportionate to the number of viable cells. A comparison of the total fluorescence of a drug-treated cell population to the fluorescence of a similar number of untreated cells yields a survival fraction.
# In brief, 5,000 to 25,000 cells/well depending on the cell line (5,000 for solid tumor, 25,000 for ALL cell lines) were replicate plated into 60 wells of a 96-well tissue culture plate in 0.1 cc media and allowed to attach or recover overnight. […]
# [4] = fatty acid 5 μM in addition to sphinganine 1 μM plus GT-11 0.5 μM, six hours, P<0.001
# [5] = fatty acid in addition to sphinganine, no GT-11, P<0.001
Compound,increase in corresponding dihydroceramide over sphinganine plus GT-11 alone [1],increase in corresponding dihydroceramide over sphinganine+GT-11 alone [2],"increase in C22:0-DHCer over sphinganine plus GT-11 alone [1, 4]","increase in C24:0-DHCer over sphinganine plus GT-11 alone [1, 4]","increase in C22:0-Cer over sphinganine alone [1, 5]","increase in C24:0-Cer over sphinganine alone [1, 5]","increase of C22:0-dihydroceramide compared to 4-HPR alone ([2]; COG-LL-317, fatty acid with 4-HPR 1.1 μM, six hours, P<0.001)","increase of C22:0-dihydroceramide over sphinganine+GT-11 alone ([2]; COG-LL-317, fatty acid with sphinganine 1 μM plus GT-11 0.5 μM, six hours, P<0.003)",effect of fatty acid on fenretinide cytotoxicity [3]
CCCCCCCC/C=C\CCCCCCCCCCCC(=O)O [C22:1-fatty acid],significant increases,significant increases,,,,,,,
CCCCCCCCCCCCCCCCCCCCCC(=O)O [C22:0-fatty acid],significant increases,significant increases,32 fold,19 fold,13 fold,4.6 fold,11 fold,13 fold,increased fenretinide cytotoxicity
